# Source: article PMC7468285, “The operational model of allosteric modulation of pharmacological agonism” (Scientific Reports, 2020)
# Where “and” joins values, the source holds several entries; their conditions need not be identical. Equal values may be shown once. Read-outs that look alike come from different tables or passages of the source.
# Legend:
# [1] = target: T1, M1 muscarinic receptor (Homo sapiens, UniProt P11229); format: cell-based; settings: for τA / EMAX: Table S3B, global fit; for τA: EMAX as shared parameter; for EMAX: EMAX estimated as shared parameter of all 4 curves; for α (factor of binding cooperativity) / β (factor of operational cooperativity): functional, global fit of Eq. (14)
# T1 construct: expressed in transfected cells; host or cells: CHO cells
# T1 sequence (P11229 1-460): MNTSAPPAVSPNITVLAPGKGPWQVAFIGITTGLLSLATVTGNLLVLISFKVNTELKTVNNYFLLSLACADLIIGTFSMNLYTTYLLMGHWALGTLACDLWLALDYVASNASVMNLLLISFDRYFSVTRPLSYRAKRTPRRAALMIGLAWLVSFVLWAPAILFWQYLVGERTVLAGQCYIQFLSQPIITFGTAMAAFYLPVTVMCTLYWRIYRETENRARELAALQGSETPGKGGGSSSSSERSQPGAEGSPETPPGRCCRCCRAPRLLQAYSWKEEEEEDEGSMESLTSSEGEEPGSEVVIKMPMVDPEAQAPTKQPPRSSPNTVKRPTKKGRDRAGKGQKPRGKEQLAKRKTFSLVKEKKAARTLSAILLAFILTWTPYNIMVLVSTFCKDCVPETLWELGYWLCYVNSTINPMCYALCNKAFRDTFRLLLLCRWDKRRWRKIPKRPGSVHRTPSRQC
# Description: (§1) CHO cells were grown to confluence in 75 cm^2 flasks in Dulbecco’s modified Eagle’s medium (DMEM) supplemented with 10% fetal bovine serum. Two million cells were subcultured in 100 mm Petri dishes. The medium was supplemented with 5 mM sodium butyrate for the last 24 h of cultivation to increase receptor expression. Cells were washed with phosphate-buffered saline and manually harvested on day 5 after subculture and centrifuged for 3 min at 250 × g. The pellet was suspended in 10 ml of ice-cold homogenization medium (100 mM NaCl, 20 mM Na-HEPES, 10 mM EDTA, pH = 7.4) and homogenized on ice by two 30 s strokes using a Polytron homogenizer (Ultra-Turrax; Janke & Kunkel GmbH & Co. KG, IKA-Labortechnik, Staufen, Germany) with a 30-s pause between strokes. Cell homogenates were centrifuged for 5 min at 1,000 × g. The supernatant was collected and centrifuged for 30 min at 30,000 × g. Pellets were suspended in the washing medium (100 mM, 10 mM MgCl2, 20 mM Na-HEPES, pH = 7.4), left for 30 min at 4 °C, and then centrifuged again for 30 min at 30,000 × g. Resulting membrane pellets were kept at -80 °C until assayed.
# Accumulation of inositol phosphates (IPX) was assayed in cells in suspension. IPX was determined after separation on ion-exchange columns (Dowex 1X8-200, Sigma, USA). Cells were harvested by mild trypsinization and resuspended in KHB and centrifuged 250 g for 3 min. Cells were resuspended in KHB supplemented with 500 nM [^3H]myo-inositol (ARC, USA) and incubated at 37 °C for 1 h. Then they were washed once with an excess of KHB, resuspended in KHB containing 10 mM LiCl, and incubated for 1 h at 37 °C in the presence of indicated concentrations of agonists and/or allosteric modulator. Incubation was terminated by the addition of 0.5 ml of stopping solution (chloroform: methanol: HCl; 2: 1: 0.1) and placed in 4 °C for 1 h. An aliquot (0.6 ml) of the upper (aqueous) phase was taken and loaded onto ion-exchange columns. Columns were washed with 10 ml of deionized water and 20 ml of 60 mM ammonium formate/5 mM sodium borate solution. IPX were collectively eluted from columns by 4 ml of 1 M ammonium formate-0.1 M/formic acid buffer.
# (§2) Where [D] and KD are concentration and equilibrium dissociation constant of the tracer ([^3H]NMS), [A] and KA are concentration and equilibrium dissociation constant of the agonist. Parameters KB and α1 obtained by fitting of Eq. (29) to binding data in the absence of the agonist.31 Concentration-responsecurvey=basal+EMAX′-basal∗x^nH/x^nH+EC50nH where y is response normalized to basal activity in the absence of allosteric ligand at concentration x, E'MAX is the apparent maximal response, EC50 is concentration causing half-maximal effect, and nH is Hill coefficient.
# [2] = target: T1, M1 muscarinic receptor; format: binding
# Description: as §1
# All radioligand binding experiments were optimized and carried out according to general guidelines. […] Agonist binding was determined in competition experiments with 1 nM [^3H]NMS. Nonspecific binding was determined in the presence of 10 μM atropine. Incubation was terminated by filtration through Whatman GF/C glass fibre filters (Whatman) using a Brandel harvester (Brandel, USA). […] The filters were cooled and counted in a Wallac Microbeta scintillation counter (Wallac, Finland).
# Data from experiments were processed in Libre Office and then analysed and plotted using program Grace (https://plasma-gate.weizmann.ac.il/Grace). […] Inhibition constant KI was calculated as:28 KI=IC50/1+D/KD where [D] is the concentration of radioligand used and KD is its equilibrium dissociation constant.
# Interaction between tracer ([^3H]NMS) and allosteric modulator:29 y=D+KD/D+KDKB+x/KB+xα where y is specific radioligand binding at concentration x of the allosteric modulator as per cent of binding in the absence of allosteric modulator. Where [D] and KD are concentration and equilibrium dissociation constant of the tracer ([^3H]NMS). The equilibrium dissociation constant of the allosteric modulator KB and factor of binding cooperativity α are obtained by fitting of Eq. (29) to data.
# as §2, with “Interaction between tracer ([^3H]NMS) and allosteric modulator in the presence of an agonist at fixed concentration:30 y=D+KD/D+KDAKB+Bα2+KAKB+B/KAKB+Bα1 where y is specific radioligand binding at concentration x of the allosteric modulator as per cent of binding in the absence of allosteric modulator. Where” for “Where”
smiles,measurement,setting,value
"Cc1ccccc1CN1CCC(N2CCC(n3c(=O)[nH]c4ccccc43)CC2)CC1 [TBPB, 3-[1-[1-[(2-methylphenyl)methyl]piperidin-4-yl]piperidin-4-yl]-1H-benzimidazol-2-one]",E’MAX,[1],56.0 ± 2.2 and 57.8 ± 3.3 and 57.9 ± 1.4
same,E′MAX of response compared with carbachol,[1],close to E′MAX of full agonist carbachol
same,basal,[1],52.7 and 53.2 and 51.3
same,effect on EC′50 of carbachol and iperoxo,[1],increased EC′50 values
same,nH,[1],1.15 ± 0.18 and 1.18 ± 0.20 and 0.85 ± 0.15
same,binding cooperativity α in functional experiments compared with binding experiments,[1]; Figs. 14 and 15 vs Fig. 12,about twice stronger
same,τA,[1],1.26 ± 334
same,EMAX,[1],98 ± 53
same,effect on E′MAX of carbachol and iperoxo,[1]; fixed concentrations of allosteric ligand,decreased E′MAX values
same,α (factor of binding cooperativity),[1]; with carbachol,0.48 ± 0.05
same,β (factor of operational cooperativity),[1]; with carbachol,0.80 ± 0.05
same,α (factor of binding cooperativity),[1]; with iperoxo,0.51 ± 0.08
same,β (factor of operational cooperativity),[1]; with iperoxo,0.78 ± 0.08
same,E’MAX,[1]; iperoxo + 1 µM TBPB,59.7 ± 3.9 fold-over basal
same,basal,[1]; iperoxo + 1 µM TBPB,51.3 fold-over basal
same,nH,[1]; iperoxo + 1 µM TBPB,1.18 ± 0.20
same,E’MAX,[1]; iperoxo + 3 µM TBPB,58.0 ± 4.8 fold-over basal
same,basal,[1]; iperoxo + 3 µM TBPB,52.7 fold-over basal
same,nH,[1]; iperoxo + 3 µM TBPB,0.82 ± 0.20
same,E’MAX,[1]; iperoxo + 10 µM TBPB,57.6 ± 2.9 fold-over basal
same,basal,[1]; iperoxo + 10 µM TBPB,53.2 fold-over basal
same,nH,[1]; iperoxo + 10 µM TBPB,1.19 ± 0.22
same,E’MAX (apparent maximal response),"[1]; ligand alone, Eq. (31)",54.4 ± 0.9 fold-over basal
same,nH (slope),"[1]; ligand alone, Eq. (31)",1.01 ± 0.08
same,operational cooperativity β,"[1]; with both carbachol and iperoxo, indicated by E′MAX change",< 1
same,αNMS (factor of binding cooperativity with NMS),[2]; Eq. (29),0.002 ± 0.001
same,inhibition of [3H]NMS binding,[2]; allosteric ligand alone,completely inhibited
same,αcarbachol (factor of binding cooperativity with carbachol),"[2]; binding experiments, Eq. (30)",0.7 ± 0.3
same,αiperoxo (factor of binding cooperativity with iperoxo),"[2]; binding experiments, Eq. (30)",0.8 ± 0.4
same,decrease in affinity of [3H]NMS,"[2]; fit of Eq. (29), TBPB estimate with high uncertainty",500 fold
same,binding cooperativity with carbachol and iperoxo,"[2]; fit of Eq. (30), high degree of uncertainty",slightly negative
C[N+](C)(C)CC#CCOC1=NOCC1 [iperoxo],τA,[1],1.97 ± 708
same,EMAX,[1],98 ± 53
same,basal,[1]; agonist alone,1 fold-over basal
same,efficacy ranking,[1]; functional experiments,greater efficacy than carbachol
same,E’MAX (apparent maximal response),"[1]; ligand alone, Eq. (31)",64.7 ± 0.5 fold-over basal
same,nH (slope),"[1]; ligand alone, Eq. (31)",1.04 ± 0.02
same,pEC50,"[1]; ligand alone, Eq. (31)",9.42 ± 0.01
same,operational efficacy τ (τA / τB),"[1]; ligand alone, Eq. […]",1.86 ± 0.04
same,pKA / pKB (functional),"[1]; ligand alone, Eq. […]",8.96 ± 0.02
same,flow (fraction of low-affinity sites),[2]; Eq. (27),51 ± 5%
same,high-affinity binding (candidate KA),"[2]; competition with [3H]NMS, high-affinity sites",200 pM
same,pIC50high,"[2]; high-affinity sites, 1 nM [3H]NMS, Eq. (27)",8.99 ± 0.05
same,pKIhigh,"[2]; high-affinity sites, 1 nM [3H]NMS, calculated from IC50 by Eq. (28)",9.70 ± 0.05
same,pIC50low,"[2]; low-affinity sites, 1 nM [3H]NMS, Eq. (27)",5.96 ± 0.04
same,pKIlow,"[2]; low-affinity sites, 1 nM [3H]NMS, calculated from IC50 by Eq. (28)",6.66 ± 0.04
